Source: US20210403435A1, “HERBICIDAL COMPOUNDS” (SYNGENTA CROP PROTECTION AG, priority 2018, published 2021)

Columns and labels:
Assay in all cases: Post-emergence efficacy, glasshouse, evaluated after 13 days
Assay type in all cases: in vivo
[1] = tested on: Digitaria sanguinalis (DIGSA); conditions: post-emergence application, 500 g/Ha, evaluated after 13 days; for pest or weed control at 500 g/ha: Digitaria sanguinalis, 312 h, read-out: Control of weed species DIGSA (100=total damage to plant; 0=no damage to plant)
Method in brief: (§1)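 Injury assessed 13 days after a post-emergence spray, 0 = no damage and 100 = total damage. Spray liquid: compound in acetone/IF50 (Emulsogen EL360, N-methylpyrrolidone, Dowanol DPM), diluted with 0.25% or 1% sodium lauryl ether sulphate plus 1% ammonium sulphate.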

[2] = tested on: Ipomoea hederacea (IPOHE); conditions: post-emergence application, 500 g/Ha, evaluated after 13 days; for pest or weed control at 500 g/ha: Ipomoea hederacea, 312 h, read-out: Control of weed species IPOHE (100=total damage to plant; 0=no damage to plant)
Method in brief: as §1

[3] = tested on: Chenopodium album (CHEAL); conditions: post-emergence application, 500 g/Ha, evaluated after 13 days; for pest or weed control at 500 g/ha: Chenopodium album, 312 h, read-out: Control of weed species CHEAL (100=total damage to plant; 0=no damage to plant)
Method in brief: as §1

Setaria faberi (SETFA) = conditions: post-emergence application, 500 g/Ha, evaluated after 13 days; for pest or weed control at 500 g/ha: Setaria faberi, 312 h, read-out: Control of weed species SETFA (100=total damage to plant; 0=no damage to plant)
Method in brief: as §1

[4] = tested on: Echinochloa crus-galli (ECHCG); conditions: post-emergence application, 500 g/Ha, evaluated after 13 days; for pest or weed control at 500 g/ha: Echinochloa crus-galli, 312 h, read-out: Control of weed species ECHCG (100=total damage to plant; 0=no damage to plant)
Method in brief: as §1

[5] = tested on: Amaranthus palmeri (AMAPA); conditions: post-emergence application, 500 g/Ha, evaluated after 13 days; for pest or weed control at 500 g/ha: Amaranthus palmeri, 312 h, read-out: Control of weed species AMAPA (100=total damage to plant; 0=no damage to plant)
Method in brief: as §1

Eleusine indica (ELEIN) = conditions: post-emergence application, 500 g/Ha, evaluated after 13 days; for pest or weed control at 500 g/ha: Eleusine indica, 312 h, read-out: Control of weed species ELEIN (100=total damage to plant; 0=no damage to plant)
Method in brief: as §1

[6] = tested on: Euphorbia heterophylla (EPHHL); conditions: post-emergence application, 500 g/Ha, evaluated after 13 days; for pest or weed control at 500 g/ha: Euphorbia heterophylla, 312 h, read-out: Control of weed species EPHHL (100=total damage to plant; 0=no damage to plant)
Method in brief: as §1

Lolium perenne (LOLPE) = conditions: post-emergence application, 500 g/Ha, evaluated after 13 days; for pest or weed control at 500 g/ha: Lolium perenne, 312 h, read-out: Control of weed species LOLPE (100=total damage to plant; 0=no damage to plant)
Method in brief: as §1

How did the pest or weed control at 500 g/ha [1] turn out when Cn1ncnc1CCNC(=O)c1cc[n+](CCC(=O)O)nc1 [Compound A144] was run?
The pest or weed control at 500 g/ha was 80%.

And the pest or weed control at 500 g/ha [2]?
Its pest or weed control at 500 g/ha is 50%.

What about the pest or weed control at 500 g/ha [3] of the same molecule?
Its pest or weed control at 500 g/ha is 100%.

And the pest or weed control at 500 g/ha (Setaria faberi (SETFA))?
The pest or weed control at 500 g/ha was 90%.

What about the pest or weed control at 500 g/ha [4] of the same molecule?
Its pest or weed control at 500 g/ha is 60%.

What about the pest or weed control at 500 g/ha [5] of the same molecule?
Its pest or weed control at 500 g/ha is 100%.

And the pest or weed control at 500 g/ha (Eleusine indica (ELEIN))?
The pest or weed control at 500 g/ha was 100%.

What about the pest or weed control at 500 g/ha [6] of the same molecule?
Its pest or weed control at 500 g/ha is 90%.

What about the pest or weed control at 500 g/ha (Lolium perenne (LOLPE)) of the same molecule?
Its pest or weed control at 500 g/ha is 60%.

Which results are given for N#Cc1ccc(CNC(=O)c2cc[n+](CCC(=O)O)nc2)cc1 [Compound A96]?
pest or weed control at 500 g/ha [1]: 20%; pest or weed control at 500 g/ha [2]: 40%; pest or weed control at 500 g/ha [3]: 80%; pest or weed control at 500 g/ha (Setaria faberi (SETFA)): 30%; pest or weed control at 500 g/ha [4]: 20%; pest or weed control at 500 g/ha [5]: 100%; pest or weed control at 500 g/ha (Eleusine indica (ELEIN)): 50%; pest or weed control at 500 g/ha [6]: 100%; pest or weed control at 500 g/ha (Lolium perenne (LOLPE)): 20%

Which pest or weed control at 500 g/ha [1] does the source give for O=C(NCC(F)(F)F)c1cc[n+](CCS(=O)(=O)[O-])nc1 [Compound A36] here?
The pest or weed control at 500 g/ha was 60%.

What about the pest or weed control at 500 g/ha [2] of the same molecule?
Its pest or weed control at 500 g/ha is 40%.

What about the pest or weed control at 500 g/ha [3] of the same molecule?
Its pest or weed control at 500 g/ha is 90%.

And the pest or weed control at 500 g/ha (Setaria faberi (SETFA))?
The pest or weed control at 500 g/ha was 60%.

What about the pest or weed control at 500 g/ha [4] of the same molecule?
The pest or weed control at 500 g/ha was 30%.

What about the pest or weed control at 500 g/ha [5] of the same molecule?
The pest or weed control at 500 g/ha was 100%.

What about the pest or weed control at 500 g/ha (Eleusine indica (ELEIN)) of the same molecule?
Its pest or weed control at 500 g/ha is 60%.

What about the pest or weed control at 500 g/ha [6] of the same molecule?
The pest or weed control at 500 g/ha was 50%.

What about the pest or weed control at 500 g/ha (Lolium perenne (LOLPE)) of the same molecule?
Its pest or weed control at 500 g/ha is 20%.

CNC(=O)c1cc[n+](CC[C@H](N)C(=O)O)nc1.O=C(O)C(F)(F)F.O=C([O-])C(F)(F)F [Compound A12] was tested. Which “Control of weed species DIGSA (100=total damage to plant; 0=no damage to plant)” value [1] did it give?
The value was 90.

What about the “Control of weed species IPOHE (100=total damage to plant; 0=no damage to plant)” value [2] of the same molecule?
The value was 40.

What about the “Control of weed species CHEAL (100=total damage to plant; 0=no damage to plant)” value [3] of the same molecule?
The value was 60.

What about the “Control of weed species SETFA (100=total damage to plant; 0=no damage to plant)” value (Setaria faberi (SETFA)) of the same molecule?
Its value is 60.

And the “Control of weed species ECHCG (100=total damage to plant; 0=no damage to plant)” value [4]?
Its value is 80.

And the “Control of weed species AMAPA (100=total damage to plant; 0=no damage to plant)” value [5]?
Its value is 90.

And the “Control of weed species ELEIN (100=total damage to plant; 0=no damage to plant)” value (Eleusine indica (ELEIN))?
The value was 60.

And the “Control of weed species EPHHL (100=total damage to plant; 0=no damage to plant)” value [6]?
Its value is 70.

And the “Control of weed species LOLPE (100=total damage to plant; 0=no damage to plant)” value (Lolium perenne (LOLPE))?
The value was 40.

How did the pest or weed control at 500 g/ha [1] turn out when CC(C)(CO)NC(=O)c1cc[n+](CCC(=O)O)nc1 [Compound A100] was run?
Its pest or weed control at 500 g/ha is 70%.

And the pest or weed control at 500 g/ha [2]?
The pest or weed control at 500 g/ha was 20%.

And the pest or weed control at 500 g/ha [3]?
The pest or weed control at 500 g/ha was 20%.

And the pest or weed control at 500 g/ha (Setaria faberi (SETFA))?
Its pest or weed control at 500 g/ha is 90%.

And the pest or weed control at 500 g/ha [4]?
Its pest or weed control at 500 g/ha is 60%.

What about the pest or weed control at 500 g/ha [5] of the same molecule?
Its pest or weed control at 500 g/ha is 60%.

What about the pest or weed control at 500 g/ha (Eleusine indica (ELEIN)) of the same molecule?
The pest or weed control at 500 g/ha was 40%.

And the pest or weed control at 500 g/ha [6]?
The pest or weed control at 500 g/ha was 30%.

What about the pest or weed control at 500 g/ha (Lolium perenne (LOLPE)) of the same molecule?
The pest or weed control at 500 g/ha was 50%.

What does the source list for CCNC(=O)c1cc[n+](CCCS(=O)(=O)[O-])nc1 [Compound A76]?
pest or weed control at 500 g/ha [1]: 70%; pest or weed control at 500 g/ha [2]: 30%; pest or weed control at 500 g/ha [3]: 70%; pest or weed control at 500 g/ha (Setaria faberi (SETFA)): 30%; pest or weed control at 500 g/ha [4]: 30%; pest or weed control at 500 g/ha [5]: 40%; pest or weed control at 500 g/ha (Eleusine indica (ELEIN)): 60%; pest or weed control at 500 g/ha [6]: 100%; pest or weed control at 500 g/ha (Lolium perenne (LOLPE)): 70%

Which pest or weed control at 500 g/ha [1] does the source give for O=C(O)CC[n+]1ccc(C(=O)N2CC[S+]([O-])CC2)cn1 [Compound A109] here?
Its pest or weed control at 500 g/ha is 80%.

What about the pest or weed control at 500 g/ha [2] of the same molecule?
Its pest or weed control at 500 g/ha is 60%.

What about the pest or weed control at 500 g/ha [3] of the same molecule?
Its pest or weed control at 500 g/ha is 90%.

What about the pest or weed control at 500 g/ha (Setaria faberi (SETFA)) of the same molecule?
Its pest or weed control at 500 g/ha is 90%.

And the pest or weed control at 500 g/ha [4]?
The pest or weed control at 500 g/ha was 70%.

And the pest or weed control at 500 g/ha [5]?
The pest or weed control at 500 g/ha was 100%.

And the pest or weed control at 500 g/ha (Eleusine indica (ELEIN))?
Its pest or weed control at 500 g/ha is 90%.

And the pest or weed control at 500 g/ha [6]?
Its pest or weed control at 500 g/ha is 90%.

What about the pest or weed control at 500 g/ha (Lolium perenne (LOLPE)) of the same molecule?
The pest or weed control at 500 g/ha was 30%.

Which results are given for CN(C(=O)c1cc[n+](CCS(=O)(=O)O)nc1)c1ccccc1 [Compound A8]?
pest or weed control at 500 g/ha [1]: 20%; pest or weed control at 500 g/ha [2]: 30%; pest or weed control at 500 g/ha [3]: 90%; pest or weed control at 500 g/ha (Setaria faberi (SETFA)): 20%; pest or weed control at 500 g/ha [4]: 10%; pest or weed control at 500 g/ha [5]: 100%; pest or weed control at 500 g/ha (Eleusine indica (ELEIN)): 40%; pest or weed control at 500 g/ha [6]: 80%; pest or weed control at 500 g/ha (Lolium perenne (LOLPE)): 0%

With O=C(O)CC[n+]1ccc(C(=O)NC2CC2(F)F)cn1 (stereo not drawn) [Compound A95] as the molecule, how does the pest or weed control at 500 g/ha [1] read?
The pest or weed control at 500 g/ha was 100%.

What about the pest or weed control at 500 g/ha [2] of the same molecule?
Its pest or weed control at 500 g/ha is 60%.

What about the pest or weed control at 500 g/ha [3] of the same molecule?
Its pest or weed control at 500 g/ha is 100%.

What about the pest or weed control at 500 g/ha (Setaria faberi (SETFA)) of the same molecule?
Its pest or weed control at 500 g/ha is 100%.

And the pest or weed control at 500 g/ha [4]?
The pest or weed control at 500 g/ha was 80%.

And the pest or weed control at 500 g/ha [5]?
The pest or weed control at 500 g/ha was 100%.

And the pest or weed control at 500 g/ha (Eleusine indica (ELEIN))?
The pest or weed control at 500 g/ha was 100%.

What about the pest or weed control at 500 g/ha [6] of the same molecule?
Its pest or weed control at 500 g/ha is 100%.

What about the pest or weed control at 500 g/ha (Lolium perenne (LOLPE)) of the same molecule?
Its pest or weed control at 500 g/ha is 60%.
